What was measured:
[1] = cited from earlier work
[2] = test system: Aspergillus niger mixed with Penicillium funiculosum; assay: Fungal efficacy on dry paint film (Modified ASTM 5590), pool An + Pf; assay type: cell-based; conditions: for % Inhibition: at the total conc for the same composition
Description: (§1) Each sample was tested in duplicate.
(§2) The SI is calculated based on F. C. Kull et.
(§3) SI value of <1 in the formula indicates a synergism of the blended biocides exists.
(§4) NE=no end point at the concentration tested that will meet the percent inhibition criteria set in each SI calculation.

[3] = test system: Chlorella sp., Chlorella kessleri, and Nostoc commune; assay: Algal efficacy on dry paint film (Modified ASTM 5589), pool Cs + Ck + Nc (Ch-No); assay type: cell-based
Description: as §1
(§5) In this synergy study, three pool of mixed algae were prepared as the test inoculum, Gloeocapsa sp. and Oscillatoria sp. a mix of cyanobacteria grown on BG-11 media; Chlorella sp., Chlorella kessleri, and Nostoc commune are unicellular chlorphytes that were mixed and grown on Bold media; Trentepohlia aurea, Tretepohlia odorata, and Calotrix parientina are filamentous algae that were mixed and grown on Bold media.
(§6) The plates were incubated at room temp (25° C.-26° C.) with cyclic exposure to light (OTT-Lite model # OTL4012P, 40 Watt, 26 KLumen) and dark phases, for a period of four weeks. The total area covered was evaluated at the end of each week according to percent area covered in 5% increments.
as §2, §3, §4

[4] = test system: Trentepohlia aurea, Tretepohlia odorata, and Calotrix parientina; assay: Algal efficacy on dry paint film (Modified ASTM 5589), pool Cp + To + Ta (Cal-Tre); assay type: cell-based
Description: as §1, §5, §6, §2, §3, §4

[5] = test system: Gloeocapsa sp. and Oscillatoria sp.; assay: Algal efficacy on dry paint film (Modified ASTM 5589), pool Gs + Os (Os-Gl); assay type: cell-based
Description: as §1, §5, §6, §2, §3, §4

Ap-Ch = assay: Fungal efficacy on dry paint film (Modified ASTM 5590), pool Ap-Ch; assay type: cell-based, Aureobasidium pullulans + Cladosporium herbarum
Description: as §1, §2, §3, §4

Aa-Tv = assay: Fungal efficacy on dry paint film (Modified ASTM 5590), pool Aa-Tv; assay type: cell-based, Alternaria alternata + Trichoderma viride
Description: as §1, §2, §3, §4

[6] = at the total conc for the same composition

O=C(O)CNCP(=O)(O)O [glyphosate, N-(phosphonomethyl)glycine]
solubility in water [1]: relatively high solubility in water

zinc glyphosate
% Inhibition [2]: 70%

c1ccc2[nH]c(-c3cscn3)nc2c1 [TBZ, thiabendazole]
% Inhibition [3, 6]: 80% | Total conc (minimum inhibitory concentration chosen for SI) ([3]; total actives in paint): 2475 pppm | % Inhibition [4, 6]: 80% | Total conc (minimum inhibitory concentration chosen for SI) ([4]; total actives in paint): 1650 pppm | % Inhibition [5, 6]: 80% | Total conc (minimum inhibitory concentration chosen for SI) ([5]; total actives in paint): 3300 pppm | % Inhibition [2]: 70% | Total conc (minimum inhibitory concentration chosen for SI) ([2]; total actives in paint): 2475 pppm | % Inhibition (Ap-Ch; [6]): 100% | Total conc (minimum inhibitory concentration chosen for SI) (Ap-Ch; total actives in paint): 1650 pppm | % Inhibition (Aa-Tv; [6]): 0% | Total conc (minimum inhibitory concentration chosen for SI) (Aa-Tv; total actives in paint): 3300 pppm

Source: patent US8691725B2, “Synergistic combination of a glyphosate compound and TBZ” (Dow Global Technologies LLC, priority 2010, dated 2014)
